Experimental data taken from BindingDB's records for patent US11787766 (Shanghai Ennovabio Pharmaceuticals, 2023).

Biological target: Programmed cell death 1 ligand/protein 1 (Homo sapiens, UniProt Q9NZQ7)
Assay: Homogeneous Time-Resolved Fluorescence (HTRF)
Excerpt: PD1/PD-L1 binding assay kit (Cisbio, Cat #63ADK000CPDEC) was used, which includes two proteins, Tag 1-PD-L1 and Tag 2-PD-1, and two antibodies, Anti-Tag1-Eu3+ and Anti-Tag2-XL 665. Assay principle: Anti-tag1-Eu3+ is the HTRF donor, and Anti-Tag2-XL 665 is the HTRF acceptor. When Tag 1-PD-L1 and Tag 2-PD-1 interact, the added HTRF donor and the acceptor are close to each other. After the donor receives the excitation energy, it transfers part of the energy to the acceptor, thus producing 665 nm emission signal. When the compound is added to block the PD1/PD-L1 interaction, only 620 nm emission light was detected. The inhibitory effect of the compound was determined by analyzing the ratio of 665 nm/620 nm. Tag 1-PD-L1 was diluted with Diluent buffer (cat #62DLBDDF) to a working concentration of 10 nM, Tag 2-PD-1 was diluted with Diluent buffer to a working concentration of 500 nM, and Anti-Tag1-Eu3+ was diluted with detection buffer (cat #62DB1FDG) by 1:100, Anti-Tag2-XL 665 was diluted with detection buffer by 1:20, and the test compound was diluted with Diluent buffer to a final concentration of 2×. In a 384-well plate, 2 μL of compound was added to each well, and then 4 μL of Tag 1-PD-L1, 4 μL of Tag 2-PD-1 were added and incubated at room temperature for 15 minutes.

Sequence of Programmed cell death 1 ligand/protein 1 (Q9NZQ7 whole entry): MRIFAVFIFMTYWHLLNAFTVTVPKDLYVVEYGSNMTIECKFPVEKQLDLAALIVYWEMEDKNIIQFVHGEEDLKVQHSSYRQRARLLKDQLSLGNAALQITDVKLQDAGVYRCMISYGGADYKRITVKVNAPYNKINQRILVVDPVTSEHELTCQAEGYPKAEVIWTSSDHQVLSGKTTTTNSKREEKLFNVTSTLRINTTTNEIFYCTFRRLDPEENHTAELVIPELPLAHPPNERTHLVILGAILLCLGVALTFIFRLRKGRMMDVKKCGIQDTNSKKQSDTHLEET
Sequence of Programmed cell death 1 ligand/protein 1 (Q15116 whole entry, further chain): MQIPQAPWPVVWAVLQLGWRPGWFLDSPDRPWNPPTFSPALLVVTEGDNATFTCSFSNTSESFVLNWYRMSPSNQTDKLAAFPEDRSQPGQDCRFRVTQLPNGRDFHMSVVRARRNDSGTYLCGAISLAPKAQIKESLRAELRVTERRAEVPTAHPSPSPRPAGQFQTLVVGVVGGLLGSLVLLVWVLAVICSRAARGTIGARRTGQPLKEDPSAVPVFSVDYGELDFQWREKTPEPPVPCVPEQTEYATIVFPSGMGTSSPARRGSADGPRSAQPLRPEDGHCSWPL

SMILES	IC50
COc1nc(OCc2cccc(-c3cccc(CO)c3C)c2C)ccc1CNCCNC(C)=O [US11787766, Compound 2]	> 1000 nM
COc1nc(OCc2cccc(-c3cccc(CO)c3C)c2C)ccc1CN [US11787766, Compound 3]	> 1000 nM
COc1nc(OCc2cccc(-c3cccc(COc4ccc(C#N)c(OC)n4)c3C)c2C)ccc1C#N [US11787766, Compound 5]	> 1000 nM
COc1cc(OCc2cccc(-c3cccc(CO)c3C)c2C)cc(OC)c1CN [US11787766, Compound 11]	> 1000 nM
COc1nc(OCc2cccc(-c3cccc(CN)c3C)c2)ccc1CN [US11787766, Compound 16]	> 1000 nM
COc1nc(OCc2cccc(-c3cccc(COc4ccc(CNCCNC(C)=O)c(OC)n4)c3C)c2C)ccc1C#N [US11787766, Compound 17]	> 1000 nM
COc1nc(OCc2cccc(-c3cccc(COc4ccc(CNCCNC(C)=O)c(OC)n4)c3Cl)c2C)ccc1CNCCNC(C)=O [US11787766, Compound 30]	< 10 nM
COc1nc(OCc2cccc(-c3cccc(COc4ccc(CN5C[C@H](O)C[C@H]5CO)c(OC)n4)c3Cl)c2Cl)ccc1CN1C[C@H](O)C[C@H]1CO [US11787766, Compound 69]	< 10 nM
